# Data reported in patent US8623859B2, “Bradykinin B1 antagonists” (Evotec AG, priority 2008, dated 2014).
# Counter-ions that a name gives are not always drawn.
# Target: T1, human B1 (Homo sapiens, UniProt P46663)
# T1 construct: host or cells: CHO-K1
# T1 sequence (P46663 1-353): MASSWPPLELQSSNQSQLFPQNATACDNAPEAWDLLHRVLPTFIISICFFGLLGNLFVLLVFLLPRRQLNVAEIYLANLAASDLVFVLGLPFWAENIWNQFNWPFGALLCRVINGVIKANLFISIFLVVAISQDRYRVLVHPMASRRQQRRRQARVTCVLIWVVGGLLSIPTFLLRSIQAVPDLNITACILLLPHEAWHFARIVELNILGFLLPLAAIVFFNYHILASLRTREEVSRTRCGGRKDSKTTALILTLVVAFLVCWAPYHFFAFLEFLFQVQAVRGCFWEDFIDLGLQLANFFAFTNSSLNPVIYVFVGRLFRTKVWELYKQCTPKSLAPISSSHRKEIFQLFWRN
# Test: Calcium flux assay for Bradykinin B1 antagonist, CHO-K1 cell line expressing human B1
# Format: cell-based
# Details: CHO-K1 cells expressing human B1, agonist Lys-(Des-Arg)-Bradykinin, read-out: Potency (IC50 value against human B1)
# Procedure: Calcium Flux Assay for Bradykinin B1 Antagonist
# The potency to inhibit the Bradykinin B1 receptors was determined for the compounds of this invention in a cell-based fluorescent calcium-mobilization assay. The assay measures the ability of test compounds to inhibit Bradykinin B1 receptor agonist-induced increase of intracellular free Ca^2+ in cell lines expressing B1.
# The change of the intracellular Ca^2+ concentration is monitored with a specifically designed fluorescent plate reader (FlexStation, Molecular Devices).
# CHO-K1 cell line expressing human B1 was purchased from Euroscreen (Gosselies, Belgium, with reference name hBl-D1). CHO-K1 cell lines expressing rat B1 or mouse B1 were established in the following way: the full-length receptor-coding cDNA clones were obtained by PCR performed on rat or mouse brain cDNAs. The respective cDNAs were cloned into an expression vector under the control of a CMV promotor. The resultant plasmids were introduced into CHO-K1 cells with liposome technology (FuGENE; Roche Diagnostics, Basel), according to the standard protocols described by the manufacturer. Cell lines expressing a Bradykinin receptor were selected in the culture medium containing 400 μg/ml G418 (Sigma). From selected cell populations, monoclonal cell lines were isolated by single cell cloning. The expression of Bradykinin receptors was confirmed by immunofluorescence staining of the cells, as well as by calcium flux assay.
# Human B1-expressing cells were grown in Nutrient Mixture Ham's F12 (Sigma) containing 10% Foetal bovine serum (Sigma) and 400 μg/ml G418 (Sigma), 5 μg/ml puromycim (Sigma); Rat B1 and mouse B1-expressing cells were grown in DMEM/F12 medium (Sigma) containing 10% Foetal bovine serum (Sigma) and 400 μg/ml G418 (Sigma).
# For the calcium flux assay, 80% confluent cells were detached from the culture vessels with Versene (Gibco; for human B1 cell-line) or with 1× trypsin-EDTA solution (Sigma; for rodent B1 cell-line), and seeded into 384-well plates (Cell binding Surface; Corning, N.Y.; #3683) at a density of 15,000 cells per well for human B1 or at a density of 20,000 cells per well for rodent B1. Cells were seeded in a volume of 50 μl in medium without antibiotics and incubated overnight in a humidified atmosphere with 5% CO2 at 37° C. The following day, the medium was replaced with 20 μl of 5 μM Fluo-4AM dye (Molecular Probes) in assay buffer (2.5 mM probenicid, 1 mg/ml pluronic acid, 0.1% BSA, 135 mM NaCl, 5 mM KCl, 1.8 mM CaCl, 1 mM MgCl2, 10 mM HEPES, 5.6 mM glucose, 0.05% gelatine, pH 7.4). The calcium indicator loaded cells were incubated at 37° C. for 2 hrs. Extracellular dye was then removed and each well was filled with 45 μl of assay buffer. Cell plates were kept in dark until used. Test compounds were assayed at 8 concentrations in triplicate. Serial 10-fold dilutions in 100% DMSO were made at a 100-times higher concentration than the final concentration, and then diluted 1:10 in assay buffer. 5 μl of each diluted compound was added to the well of cell plates (yielding final concentration with 1% DMSO), and incubated for 30 min at 25° C. before the addition of B1 agonist on the FlexStation.
# The addition of agonist 20 μl per well to the assay plate was carried out on the FlexStation while continuously monitoring Ca^2+-dependent fluorescence at 538 nm. The integrated values, normalized with the background fluorescence, were plotted against the logarithm of the antagonist concentrations.
row,IC50 [nM],Compound
1,10 to 100,"COc1cc(C)c(S(=O)(=O)N(Cc2nc(C(=O)N3CCN(CCc4ccccn4)CC3)co2)C2CC2)c(C)c1 [Ex 228, N-Cyclopropyl-4-methoxy-2,6-dimethyl-N-[(4-{[4-(2-pyridin-2-ylethyl)piperazin-1-yl]carbonyl}-1,3-oxazol-2-yl)methyl]benzenesulfonamide trifluoroacetate]"
2,< 10,"COc1cc(C)c(S(=O)(=O)N(Cc2nc(C(=O)N(C)Cc3ccc(CN4CCCC4)nc3)co2)C2CC2)c(C)c1 [Ex 203, 2-({Cyclopropyl[(4-methoxy-2,6-dimethylphenyl)sulfonyl]amino}methyl)-N-methyl-N-{[6-(pyrrolidin-1-ylmethyl)pyridin-3-yl]methyl}-1,3-oxazole-4-carboxamide]"
3,< 10,"COc1cc(C)c(S(=O)(=O)N(Cc2nc(C(=O)N(C)CCc3ccc(C4=NCCN4)cc3)co2)C2CC2)c(C)c1 [Ex 79, 2-({Cyclopropyl[(4-methoxy-2,6-dimethylphenyl)sulfonyl]amino}methyl)-N-{2-[4-(4,5-dihydro-1H-imidazol-2-yl)phenyl]ethyl}-N-methyl-1,3-oxazole-4-carboxamide]"
4,< 10,"COc1cc(C)c(S(=O)(=O)N(C)Cc2nc(C(=O)NCc3cccc(CN4CCCC4)c3)co2)c(C)c1 [Ex 74, 2-({[(4-Methoxy-2,6-dimethylphenyl)sulfonyl](methyl)amino}methyl)-N-[3-(pyrrolidin-1-ylmethyl)benzyl]-1,3-oxazole-4-carboxamide]"
5,100 to 1000,"COc1cc(C)c(S(=O)(=O)N(C)Cc2cc(C(=O)N3CCN(CCc4ccncc4)CC3)co2)c(C)c1 [Ex 33, 4-methoxy-N,2,6-trimethyl-N-[(4-{[4-(2-pyridin-4-ylethyl)piperazin-1-yl]carbonyl}furan-2-yl)methyl]benzenesulfonamide]"
6,100 to 1000,"COc1cc(C)c(S(=O)(=O)N(Cc2nc(C(=O)N3CCC(C(=O)N4CCN(C)CC4)CC3)co2)C2CC2)c(C)c1 [Ex 229, N-Cyclopropyl-4-methoxy-2,6-dimethyl-N-{[4-({4-[(4-methylpiperazin-1-yl)carbonyl]piperidin-1-yl}carbonyl)-1,3-oxazol-2-yl]methyl}benzenesulfonamide trifluoroacetate]"
7,< 10,"COc1cc(C)c(S(=O)(=O)N(C)Cc2nc(C(=O)N(C)CCc3ccc(C4=NCCN4)cc3)co2)c(C)c1 [Ex 69, N-{2-[4-(4,5-dihydro-1H-imidazol-2-yl)phenyl]ethyl}-2-({[(4-methoxy-2,6-dimethylphenyl)sulfonyl](methyl)amino}methyl)-N-methyl-1,3-oxazole-4-carboxamide]"
8,< 10,"CN(CCc1ccc(C2=NCCN2)cc1)C(=O)c1coc(CN(C)S(=O)(=O)c2c(Cl)cc(Br)cc2Cl)c1 [Ex 24, 5-({[(4-bromo-2,6-dichlorophenyl)sulfonyl](methyl)amino}methyl)-N-{2-[4-(4,5-dihydro-1H-imidazol-2-yl)phenyl]ethyl}-N-methylfuran-3-carboxamide]"
9,< 10,"COc1cc(C)c(S(=O)(=O)N(Cc2nnc(C(=O)N3CCN(CCCN4CCCC4)CC3)o2)C2CC2)c(C)c1 [Ex 273, N-Cyclopropyl-4-methoxy-2,6-dimethyl-N-[(5-{[4-(3-pyrrolidin-1-ylpropyl)piperazin-1-yl]carbonyl}-1,3,4-oxadiazol-2-yl)methyl]benzenesulfonamide]"
10,100 to 1000,"COc1cc(C)c(S(=O)(=O)N(C)Cc2cc(C(=O)NCc3ccc(CN4CCCC4)c(F)c3)co2)c(C)c1 [Ex 152, N-[3-Fluoro-4-(pyrrolidin-1-ylmethyl)benzyl]-5-({[(4-methoxy-2,6-dimethylphenyl)sulfonyl](methyl)amino}methyl)furan-3-carboxamide trifluoroacetate]"
11,100 to 1000,"CN1CCC(CN2CCN(C(=O)c3coc(CN(C)S(=O)(=O)c4c(Cl)cccc4Cl)c3)CC2)CC1 [Ex 17, 2,6-dichloro-N-methyl-N-{[4-({4-[(1-methylpiperidin-4-yl)methyl]piperazin-1-yl}carbonyl)furan-2-yl]methyl}benzenesulfonamide]"
12,10 to 100,"COc1cc(C)c(S(=O)(=O)N(C)Cc2nc(C(=O)NCc3ccc(CN4CCCC4)cc3)co2)c(C)c1 [Ex 72, 2-({[(4-Methoxy-2,6dimethylphenyl)sulfonyl](methyl)amino}methyl)-N-[4-(pyrrolidin-1-ylmethyl)benzyl]-1,3-oxazole-4-carboxamide]"
13,100 to 1000,"CN(Cc1cc(C(=O)N2CCN(CCc3ccncc3)CC2)co1)S(=O)(=O)c1c(Cl)cccc1Cl [Ex 18, 2,6-dichloro-N-methyl-N-[(4-{[4-(2-pyridin-4-ylethyl)piperazin-1-yl]carbonyl}furan-2-yl)methyl]benzenesulfonamide]"
14,100 to 1000,"COc1cc(C)c(S(=O)(=O)N(C)Cc2cc(C(=O)N(C)Cc3ccc(-c4nccn4C)cc3)co2)c(C)c1 [Ex 43, 5-({[(4-methoxy-2,6-dimethylphenyl)sulfonyl](methyl)amino}methyl)-N-methyl-N-[4-(1-methyl-1H-imidazol-2-yl)benzyl]furan-3-carboxamide]"
15,< 10,"COc1cc(C)c(S(=O)(=O)N(C)Cc2noc(C(=O)N3CCN(CC4CCN(C)CC4)CC3)n2)c(C)c1 [Ex 305, 4-Methoxy-N,2,6-trimethyl-N-{[5-({4-[(1-methylpiperidin-4-yl)methyl]piperazin-1-yl}carbonyl)-1,2,4-oxadiazol-3-yl]methyl}benzenesulfonamide trifluoroacetate]"
16,< 10,"COc1cc(C)c(S(=O)(=O)N(Cc2nnc(C(=O)N3CCC(CCN4CCCC4)CC3)s2)C2CC2)c(C)c1 [Ex 337, N-Cyclopropyl-4-methoxy-2,6-dimethyl-N-[(5-{[4-(2-pyrrolidin-1-ylethyl)piperidin-1-yl]carbonyl}-1,3,4-thiadiazol-2-yl)methyl]benzenesulfonamide]"
17,< 10,"CCN(Cc1cc(C(=O)N(C)CCc2ccc(C3=NCCN3)cc2)co1)S(=O)(=O)c1c(C)cc(OC)cc1C [Ex 47, N-{2-[4-(4,5-dihydro-1H-imidazol-2-yl)phenyl]ethyl}-5-({ethyl[(4-methoxy-2,6-dimethylphenyl)sulfonyl]amino}methyl)-N-methylfuran-3-carboxamide]"
18,100 to 1000,"COc1cc(C)c(S(=O)(=O)N(Cc2nc(C(=O)N(C)CCOc3ccncc3)co2)C2CC2)c(C)c1 [Ex 257, 2-({Cyclopropyl[(4-methoxy-2,6-dimethylphenyl)sulfonyl]amino}methyl)-N-methyl-N-[2-(pyridin-4-yloxy)ethyl]-1,3-oxazole-4-carboxamide]"
19,< 10,"COc1cc(C)c(S(=O)(=O)N(C)Cc2nnc(C(=O)N3CCN(Cc4ccc(N5CCCC5)nc4)CC3)o2)c(C)c1 [Ex 261, 4-Methoxy-N,2,6-trimethyl-N-{[5-({4-[(6-pyrrolidin-1-ylpyridin-3-yl)methyl]piperazin-1-yl}carbonyl)-1,3,4-oxadiazol-2-yl]methyl}benzenesulfonamide trifluoroacetate]"
20,< 10,"COc1cc(C)c(S(=O)(=O)N(C)Cc2nc(C(=O)N3CCN(CC4CCN(C)CC4)CC3)co2)c(C)c1 [Ex 175, 4-Methoxy-N,2,6-trimethyl-N-{[4-({4-[(1-methylpiperidin-4-yl)methyl]piperazin-1-yl}carbonyl)-1,3-oxazol-2-yl]methyl}benzenesulfonamide]"
